Results as given in ChEMBL document CHEMBL3779856, “Synthesis and antiproliferative activity of 6,7-disubstituted-4-phenoxyquinoline derivatives bearing the 2-oxo-4-chloro-1,2-dihydroquinoline-3-carboxamide moiety” (Bioorg Med Chem Lett, 2016).

Columns and labels:
[1] = Cytotoxicity against human U87MG cells assessed as cell growth inhibition after 72 hrs by MTT assay; assay type: functional, cell-based, U-87MG ATCC; details: U-87 MG
A549 = assay: Cytotoxicity against human A549 cells assessed as cell growth inhibition after 72 hrs by MTT assay; assay type: functional, cell-based; details: A549, 72 h
HT-29 [2] = assay: cells; details: Homo sapiens, HT-29, 72 h
Description: Cytotoxicity against human HT-29 cells assessed as cell growth inhibition after 72 hrs by MTT assay

cells [3] = details: Homo sapiens, NCI-H460, 72 h
Description: Cytotoxicity against human H460 cells assessed as cell growth inhibition after 72 hrs by MTT assay

cells [4] = details: Homo sapiens, MKN-45, 72 h
Description: Cytotoxicity against human MKN45 cells assessed as cell growth inhibition after 72 hrs by MTT assay

[5] = biological target: Hepatocyte growth factor receptor (Homo sapiens, UniProt P08581); assay: Inhibition of cMet (unknown origin) using poly (Glu, Tyr) 4:1 as substrate after 30 mins by HTRF assay
Hepatocyte growth factor receptor, sequence (P08581 whole entry): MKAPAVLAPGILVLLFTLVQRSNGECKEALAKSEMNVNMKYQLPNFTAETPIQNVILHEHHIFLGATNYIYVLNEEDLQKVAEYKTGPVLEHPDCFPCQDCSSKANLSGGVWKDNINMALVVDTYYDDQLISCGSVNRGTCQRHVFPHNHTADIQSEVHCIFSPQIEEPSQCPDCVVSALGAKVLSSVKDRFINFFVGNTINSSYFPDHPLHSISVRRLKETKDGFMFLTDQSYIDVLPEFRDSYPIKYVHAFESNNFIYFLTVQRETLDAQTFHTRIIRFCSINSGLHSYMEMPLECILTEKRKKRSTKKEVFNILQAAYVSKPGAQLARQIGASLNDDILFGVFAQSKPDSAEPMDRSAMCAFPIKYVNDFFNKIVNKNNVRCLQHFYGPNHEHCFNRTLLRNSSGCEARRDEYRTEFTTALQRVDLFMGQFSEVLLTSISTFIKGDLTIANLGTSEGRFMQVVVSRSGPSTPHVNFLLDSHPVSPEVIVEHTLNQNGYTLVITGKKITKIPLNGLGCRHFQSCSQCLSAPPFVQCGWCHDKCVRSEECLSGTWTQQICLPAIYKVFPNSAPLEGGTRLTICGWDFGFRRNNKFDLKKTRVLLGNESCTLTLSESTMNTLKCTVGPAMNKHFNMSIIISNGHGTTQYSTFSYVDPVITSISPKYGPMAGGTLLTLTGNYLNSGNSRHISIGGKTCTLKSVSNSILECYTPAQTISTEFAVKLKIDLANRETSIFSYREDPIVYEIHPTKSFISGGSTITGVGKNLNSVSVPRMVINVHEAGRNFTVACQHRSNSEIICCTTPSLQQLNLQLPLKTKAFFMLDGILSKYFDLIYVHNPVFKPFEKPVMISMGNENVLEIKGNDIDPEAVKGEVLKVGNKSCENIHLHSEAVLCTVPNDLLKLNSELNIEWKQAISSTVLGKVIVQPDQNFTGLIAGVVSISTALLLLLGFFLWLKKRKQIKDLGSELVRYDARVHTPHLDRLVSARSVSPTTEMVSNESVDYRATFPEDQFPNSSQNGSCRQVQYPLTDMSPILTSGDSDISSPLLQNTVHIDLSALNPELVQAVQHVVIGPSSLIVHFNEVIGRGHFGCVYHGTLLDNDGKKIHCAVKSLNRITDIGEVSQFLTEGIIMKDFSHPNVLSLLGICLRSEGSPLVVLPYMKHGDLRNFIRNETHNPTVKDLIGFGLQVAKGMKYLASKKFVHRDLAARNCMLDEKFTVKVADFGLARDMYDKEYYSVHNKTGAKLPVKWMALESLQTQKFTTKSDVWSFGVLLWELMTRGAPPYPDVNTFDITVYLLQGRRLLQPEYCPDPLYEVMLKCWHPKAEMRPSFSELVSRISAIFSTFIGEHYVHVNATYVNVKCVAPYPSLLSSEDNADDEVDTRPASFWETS

[6] = Potency index, ratio of foretinib IC50 to compound IC50 for human H460 cells; assay type: functional
HT-29 [7] = assay: Potency index, ratio of foretinib IC50 to compound IC50 for human HT-29 cells; assay type: functional
U-87 MG = assay: Potency index, ratio of foretinib IC50 to compound IC50 for human U87MG cells; assay type: functional, U-87MG ATCC
[8] = biological target: T1, Receptor-type tyrosine-protein kinase FLT3 (Homo sapiens, UniProt P36888); assay: Inhibition of FLT3 (unknown origin) using poly (Glu, Tyr) 4:1 as substrate after 30 mins by HTRF assay
T1 sequence (P36888 whole entry): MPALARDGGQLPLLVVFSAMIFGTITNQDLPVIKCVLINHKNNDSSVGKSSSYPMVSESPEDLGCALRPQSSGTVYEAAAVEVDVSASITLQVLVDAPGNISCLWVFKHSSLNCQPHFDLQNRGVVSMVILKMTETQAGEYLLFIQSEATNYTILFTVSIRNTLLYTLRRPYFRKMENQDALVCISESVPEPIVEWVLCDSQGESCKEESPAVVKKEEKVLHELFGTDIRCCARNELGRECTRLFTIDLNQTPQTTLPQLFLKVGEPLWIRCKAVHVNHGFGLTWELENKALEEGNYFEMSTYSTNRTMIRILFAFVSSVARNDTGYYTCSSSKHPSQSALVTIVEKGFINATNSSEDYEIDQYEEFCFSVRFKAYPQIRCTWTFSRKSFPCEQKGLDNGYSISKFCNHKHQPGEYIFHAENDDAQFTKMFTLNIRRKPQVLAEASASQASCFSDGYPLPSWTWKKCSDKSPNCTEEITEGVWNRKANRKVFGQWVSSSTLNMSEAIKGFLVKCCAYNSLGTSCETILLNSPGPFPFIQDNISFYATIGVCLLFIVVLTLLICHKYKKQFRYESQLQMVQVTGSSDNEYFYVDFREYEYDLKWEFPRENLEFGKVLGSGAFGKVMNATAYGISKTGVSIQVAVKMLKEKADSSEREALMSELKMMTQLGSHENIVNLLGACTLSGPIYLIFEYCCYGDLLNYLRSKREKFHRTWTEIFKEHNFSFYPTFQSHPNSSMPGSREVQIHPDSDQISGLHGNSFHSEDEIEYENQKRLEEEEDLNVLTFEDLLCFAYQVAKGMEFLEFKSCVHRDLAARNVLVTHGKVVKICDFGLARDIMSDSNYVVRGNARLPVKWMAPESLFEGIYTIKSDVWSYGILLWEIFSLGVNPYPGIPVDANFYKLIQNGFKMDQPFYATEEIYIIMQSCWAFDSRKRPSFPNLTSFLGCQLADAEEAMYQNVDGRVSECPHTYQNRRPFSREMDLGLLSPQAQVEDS

[9] = biological target: Mast/stem cell growth factor receptor Kit (Homo sapiens, UniProt P10721); assay: Inhibition of cKIT (unknown origin) using poly (Glu, Tyr) 4:1 as substrate after 30 mins by HTRF assay
Mast/stem cell growth factor receptor Kit, sequence (P10721 whole entry): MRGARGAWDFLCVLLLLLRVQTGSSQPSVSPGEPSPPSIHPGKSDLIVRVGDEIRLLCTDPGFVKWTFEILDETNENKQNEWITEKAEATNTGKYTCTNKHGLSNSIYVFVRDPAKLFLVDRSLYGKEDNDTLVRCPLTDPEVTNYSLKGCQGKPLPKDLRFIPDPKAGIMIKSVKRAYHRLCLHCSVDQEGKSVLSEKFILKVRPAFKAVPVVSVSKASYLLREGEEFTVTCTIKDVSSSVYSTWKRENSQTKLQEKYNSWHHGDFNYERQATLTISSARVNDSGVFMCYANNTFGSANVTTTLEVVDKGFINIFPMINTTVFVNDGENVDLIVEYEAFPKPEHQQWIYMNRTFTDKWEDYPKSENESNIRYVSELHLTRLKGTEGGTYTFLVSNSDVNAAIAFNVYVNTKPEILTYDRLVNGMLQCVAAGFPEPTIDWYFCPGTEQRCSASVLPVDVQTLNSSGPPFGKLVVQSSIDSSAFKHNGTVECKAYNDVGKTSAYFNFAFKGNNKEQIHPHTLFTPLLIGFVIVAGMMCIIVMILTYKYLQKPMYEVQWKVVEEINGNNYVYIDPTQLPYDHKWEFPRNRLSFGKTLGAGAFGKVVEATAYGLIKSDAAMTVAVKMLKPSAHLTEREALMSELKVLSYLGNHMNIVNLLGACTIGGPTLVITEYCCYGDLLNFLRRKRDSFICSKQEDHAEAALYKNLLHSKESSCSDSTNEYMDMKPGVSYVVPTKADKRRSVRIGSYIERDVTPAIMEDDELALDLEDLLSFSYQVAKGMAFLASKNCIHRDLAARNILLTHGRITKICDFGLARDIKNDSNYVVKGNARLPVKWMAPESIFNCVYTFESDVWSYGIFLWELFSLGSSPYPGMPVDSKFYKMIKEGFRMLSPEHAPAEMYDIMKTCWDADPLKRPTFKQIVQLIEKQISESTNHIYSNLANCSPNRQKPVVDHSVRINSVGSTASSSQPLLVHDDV

[10] = biological target: Platelet-derived growth factor receptor beta (Homo sapiens, UniProt P09619); assay: Inhibition of PDGFRbeta (unknown origin) using poly (Glu, Tyr) 4:1 as substrate after 30 mins by HTRF assay
Platelet-derived growth factor receptor beta, sequence (P09619 whole entry): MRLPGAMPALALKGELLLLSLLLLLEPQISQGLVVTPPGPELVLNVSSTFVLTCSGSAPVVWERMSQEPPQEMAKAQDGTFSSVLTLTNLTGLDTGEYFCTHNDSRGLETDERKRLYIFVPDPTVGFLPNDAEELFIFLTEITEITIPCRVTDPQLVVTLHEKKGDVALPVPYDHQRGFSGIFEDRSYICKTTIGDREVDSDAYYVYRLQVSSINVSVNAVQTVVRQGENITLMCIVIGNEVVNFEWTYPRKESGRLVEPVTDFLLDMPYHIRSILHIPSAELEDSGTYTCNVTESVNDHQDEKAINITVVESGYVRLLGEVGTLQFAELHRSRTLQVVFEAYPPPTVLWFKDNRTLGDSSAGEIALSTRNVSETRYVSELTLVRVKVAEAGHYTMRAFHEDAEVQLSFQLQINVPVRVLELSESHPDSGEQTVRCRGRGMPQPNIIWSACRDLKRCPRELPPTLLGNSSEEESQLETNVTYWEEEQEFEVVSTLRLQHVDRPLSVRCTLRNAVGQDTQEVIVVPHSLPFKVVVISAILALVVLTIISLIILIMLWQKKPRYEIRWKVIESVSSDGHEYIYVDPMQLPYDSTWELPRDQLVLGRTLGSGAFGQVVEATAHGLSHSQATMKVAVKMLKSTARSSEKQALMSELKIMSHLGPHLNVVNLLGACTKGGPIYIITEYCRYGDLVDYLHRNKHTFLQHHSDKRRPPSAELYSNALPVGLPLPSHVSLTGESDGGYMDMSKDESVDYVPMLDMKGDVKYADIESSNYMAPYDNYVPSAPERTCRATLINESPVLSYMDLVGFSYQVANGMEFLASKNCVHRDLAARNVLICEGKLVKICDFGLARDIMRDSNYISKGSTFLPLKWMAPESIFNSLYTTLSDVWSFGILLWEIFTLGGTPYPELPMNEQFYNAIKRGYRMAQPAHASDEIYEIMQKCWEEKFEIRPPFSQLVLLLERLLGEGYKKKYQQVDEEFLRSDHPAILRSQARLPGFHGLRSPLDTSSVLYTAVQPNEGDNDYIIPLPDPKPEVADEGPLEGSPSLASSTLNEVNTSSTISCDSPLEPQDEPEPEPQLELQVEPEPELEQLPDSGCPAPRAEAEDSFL

[11] = biological target: Vascular endothelial growth factor receptor 2 (Homo sapiens, UniProt P35968); assay: Inhibition of VEGFR-2 (unknown origin) using poly (Glu, Tyr) 4:1 as substrate after 30 mins by HTRF assay
[12] = biological target: Epidermal growth factor receptor (Homo sapiens, UniProt P00533); assay: Inhibition of EGFR (unknown origin) using poly (Glu, Tyr) 4:1 as substrate after 30 mins by HTRF assay
Epidermal growth factor receptor, sequence (P00533 whole entry): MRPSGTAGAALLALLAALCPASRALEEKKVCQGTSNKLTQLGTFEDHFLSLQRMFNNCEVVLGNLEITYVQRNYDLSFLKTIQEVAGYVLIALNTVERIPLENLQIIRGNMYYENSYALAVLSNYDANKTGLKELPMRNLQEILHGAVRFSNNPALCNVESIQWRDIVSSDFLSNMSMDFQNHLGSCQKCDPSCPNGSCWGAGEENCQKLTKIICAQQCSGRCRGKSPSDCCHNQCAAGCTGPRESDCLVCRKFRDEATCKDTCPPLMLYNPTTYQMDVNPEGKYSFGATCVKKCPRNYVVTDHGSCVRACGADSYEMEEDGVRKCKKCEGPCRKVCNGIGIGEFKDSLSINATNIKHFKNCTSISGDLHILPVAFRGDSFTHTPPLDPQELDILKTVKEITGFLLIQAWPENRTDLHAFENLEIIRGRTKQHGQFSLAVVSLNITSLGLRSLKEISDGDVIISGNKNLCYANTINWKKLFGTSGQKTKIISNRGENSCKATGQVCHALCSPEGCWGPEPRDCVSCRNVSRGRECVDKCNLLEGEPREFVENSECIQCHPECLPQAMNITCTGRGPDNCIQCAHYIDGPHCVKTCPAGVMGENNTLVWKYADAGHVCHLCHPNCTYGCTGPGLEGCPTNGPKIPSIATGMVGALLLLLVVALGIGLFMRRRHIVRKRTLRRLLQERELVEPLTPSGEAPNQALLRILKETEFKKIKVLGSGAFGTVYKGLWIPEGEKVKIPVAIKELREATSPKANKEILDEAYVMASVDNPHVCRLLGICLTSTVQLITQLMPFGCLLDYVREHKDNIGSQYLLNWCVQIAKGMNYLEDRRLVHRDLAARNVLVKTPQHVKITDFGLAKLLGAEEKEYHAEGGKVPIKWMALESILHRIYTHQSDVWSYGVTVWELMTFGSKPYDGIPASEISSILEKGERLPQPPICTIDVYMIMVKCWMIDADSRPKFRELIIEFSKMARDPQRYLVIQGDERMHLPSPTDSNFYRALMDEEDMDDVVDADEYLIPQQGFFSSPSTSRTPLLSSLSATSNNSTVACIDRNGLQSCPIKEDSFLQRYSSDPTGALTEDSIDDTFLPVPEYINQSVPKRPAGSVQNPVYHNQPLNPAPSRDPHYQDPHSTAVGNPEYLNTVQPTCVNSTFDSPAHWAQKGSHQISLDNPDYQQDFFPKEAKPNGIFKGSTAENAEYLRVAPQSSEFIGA

Row | IC50 (HT-29 [2]) [µM] | IC50 (cells [3]) [µM] | IC50 (cells [4]) [µM] | IC50 [5] [µM] | IC50 [8] [µM] | IC50 [9] [µM] | IC50 [10] [µM] | IC50 [11] [µM] | IC50 [12] [µM] | SMILES | IC50 [1] [µM] | IC50 (A549) [µM] | Ratio IC50 [6] | Ratio IC50 (HT-29 [7]) | Ratio IC50 (U-87 MG)
1 | 0.39 | 0.85 | 0.78 |  |  |  |  |  |  | COc1cc2c(Oc3ccc(NC(=O)c4c(Cl)c5ccccc5n(-c5ccc(C)cc5)c4=O)cc3F)ccnc2cc1OCCCN1CCOCC1 | 5.16 | 0.83 |  |  | 
2 | 1.5 | 0.36 | 1.4 |  |  |  |  |  |  | COc1cc2c(Oc3ccc(NC(=O)c4c(Cl)c5ccccc5n(-c5ccccc5OC(F)(F)F)c4=O)cc3F)ccnc2cc1OCCCN1CCCC1 |  |  |  |  | 
3 | 0.39 | 0.21 | 0.21 |  |  |  |  |  |  | COc1cc2c(Oc3ccc(NC(=O)c4c(Cl)c5ccccc5n(-c5ccccc5)c4=O)cc3F)ccnc2cc1OCCCN1CCCC1 | 1.6 | 0.81 |  |  | 
4 | 1.4 | 1.2 | 1.26 |  |  |  |  |  |  | COc1cc2c(Oc3ccc(NC(=O)c4c(Cl)c5ccccc5n(-c5ccccc5OC)c4=O)cc3F)ccnc2cc1OCCCN1CCOCC1 |  |  |  |  | 
5 | 0.15 | 0.12 | 0.12 |  |  |  |  |  |  | COc1cc2c(Oc3ccc(NC(=O)c4c(Cl)c5ccccc5n(-c5ccc(C)cc5)c4=O)cc3F)ccnc2cc1OCCCN1CCN(C)CC1 | 1.06 | 0.31 |  |  | 
6 | 0.17 | 0.27 | 0.41 |  |  |  |  |  |  | COc1cc2c(Oc3ccc(NC(=O)c4c(Cl)c5ccccc5n(-c5ccccc5F)c4=O)cc3F)ccnc2cc1OCCCN1CCN(C)CC1 | 1.32 | 0.29 |  |  | 
7 | 0.15 | 0.12 | 0.57 | 0.0125 |  |  |  |  |  | COc1cc2c(Oc3ccc(NC(=O)c4c(Cl)c5ccccc5n(-c5ccc(F)cc5)c4=O)cc3F)ccnc2cc1OCCCN1CCCC1 | 0.64 | 0.72 |  |  | 
8 | 41.6 | 0.14 | 0.28 | 0.0184 |  |  |  |  |  | COc1cc2c(Oc3ccc(NC(=O)c4c(Cl)c5ccccc5n(-c5ccccc5)c4=O)cc3F)ccnc2cc1OCCCN1CCCCC1 | 1.3 | 0.51 |  |  | 
9 | 0.35 | 0.15 | 0.46 | 0.00684 |  |  |  |  |  | COc1cc2c(Oc3ccc(NC(=O)c4c(Cl)c5ccccc5n(-c5ccccc5)c4=O)cc3F)ccnc2cc1OCCCN1CCC(C)CC1 | 1.42 | 0.39 |  |  | 
10 | 0.068 | 0.031 | 0.16 | 0.00121 | 0.00215 | 0.363 | 0.526 | 0.543 | > 100 | COc1cc2c(Oc3ccc(NC(=O)c4c(Cl)c5ccccc5n(-c5ccc(F)cc5)c4=O)cc3F)ccnc2cc1OCCCN1CCN(C)CC1 | 0.52 | 0.11 | 6.1 | 2.4 | 2.1
11 | 0.46 | 0.26 | 0.31 |  |  |  |  |  |  | COc1cc2c(Oc3ccc(NC(=O)c4c(Cl)c5ccccc5n(-c5ccccc5)c4=O)cc3F)ccnc2cc1OCCCN1CCOCC1 | 4.8 | 0.93 |  |  | 
12 | 0.14 | 0.061 | 0.21 | 0.00532 |  |  |  |  |  | COc1cc2c(Oc3ccc(NC(=O)c4c(Cl)c5ccccc5n(-c5ccc(F)cc5)c4=O)cc3F)ccnc2cc1OCCCN1CCOCC1 | 8.5 | 0.11 |  |  | 
13 | 0.19 | 0.18 | 0.12 |  |  |  |  |  |  | COc1cc2c(Oc3ccc(NC(=O)c4c(Cl)c5ccccc5n(-c5ccc(C)cc5)c4=O)cc3F)ccnc2cc1OCCCN1CCC(C)CC1 | 3.2 | 0.35 |  |  | 
14 | 0.29 | 0.11 | 0.31 | 0.0122 |  |  |  |  |  | COc1cc2c(Oc3ccc(NC(=O)c4c(Cl)c5ccccc5n(-c5ccc(F)cc5)c4=O)cc3F)ccnc2cc1OCCCN1CCCCC1 | 1.6 | 0.16 |  |  | 
15 | 12.6 | 0.58 | 0.42 |  |  |  |  |  |  | COc1cc2c(Oc3ccc(NC(=O)c4c(Cl)c5ccccc5n(-c5ccccc5OC)c4=O)cc3F)ccnc2cc1OCCCN1CCCCC1 |  |  |  |  | 
16 | 0.53 | 0.15 | 0.12 |  |  |  |  |  |  | COc1cc2c(Oc3ccc(NC(=O)c4c(Cl)c5ccccc5n(-c5ccccc5OC)c4=O)cc3F)ccnc2cc1OCCCN1CCN(C)CC1 |  |  |  |  | 
17 | 0.57 | 0.38 | 0.31 |  |  |  |  |  |  | COc1cc2c(Oc3ccc(NC(=O)c4c(Cl)c5ccccc5n(-c5ccccc5OC(F)(F)F)c4=O)cc3F)ccnc2cc1OCCCN1CCC(C)CC1 |  |  |  |  | 
18 | 0.48 | 0.23 | 0.9 |  |  |  |  |  |  | COc1cc2c(Oc3ccc(NC(=O)c4c(Cl)c5ccccc5n(-c5ccc(C)cc5)c4=O)cc3F)ccnc2cc1OCCCN1CCCC1 | 3.24 | 0.23 |  |  | 
19 | 0.11 | 0.089 | 0.16 | 0.00326 |  |  |  |  |  | COc1cc2c(Oc3ccc(NC(=O)c4c(Cl)c5ccccc5n(-c5ccc(F)cc5)c4=O)cc3F)ccnc2cc1OCCCN1CCC(C)CC1 | 1.92 | 0.99 |  |  | 
20 | 0.091 | 0.061 | 0.12 | 0.00175 |  |  |  |  |  | COc1cc2c(Oc3ccc(NC(=O)c4c(Cl)c5ccccc5n(-c5ccccc5)c4=O)cc3F)ccnc2cc1OCCCN1CCN(C)CC1 |  |  |  |  | 
21 | 1.21 | 0.58 | 0.74 |  |  |  |  |  |  | COc1cc2c(Oc3ccc(NC(=O)c4c(Cl)c5ccccc5n(-c5ccccc5F)c4=O)cc3F)ccnc2cc1OCCCN1CCOCC1 |  |  |  |  | 
22 | 0.52 | 0.17 | 0.48 |  |  |  |  |  |  | COc1cc2c(Oc3ccc(NC(=O)c4c(Cl)c5ccccc5n(-c5ccc(C)cc5)c4=O)cc3F)ccnc2cc1OCCCN1CCCCC1 |  |  |  |  | 
23 | 0.3 | 0.62 | 1.2 |  |  |  |  |  |  | COc1cc2c(Oc3ccc(NC(=O)c4c(Cl)c5ccccc5n(-c5cc(C)cc(C)c5)c4=O)cc3F)ccnc2cc1OCCCN1CCCC1 |  |  |  |  | 
